Test results: paper PMC9747717, “A novel small molecule inhibitor of human Drp1” (Scientific Reports, 2022)

Legend:
human Drp1 isoform 3 [1] = target: T1, human Drp1 isoform 3 (Homo sapiens, UniProt O00429); assay: Surface plasmon resonance (SPR) binding; settings: concentrations as high as 100 µM
T1 construct: His tag; made in house; host or cells: E. coli Rosetta (DE3), pET21b vector
Description: The recombinant human Drp1 protein (His-tagged human Drp1 isoform 3, kindly provided by Professor Michael Ryan, Monash University, Australia) was generated as described previously. Briefly, cDNA for human Drp1 (isoform 3) was cloned into pET21b vector and transformed in Rosetta (DE3) competent cells (Novagen, MA, Merck Millipore). Transformed cells were propagated in Luria–Bertani broth and protein expression was initiated by the addition of 0.5 mM isopropyl β-D-1-thiogalactopyranoside. […]
All SPR experiments were performed on a Biacore T200 instrument (GE Healthcare Life Sciences, Uppsala, Sweden) at 25 °C in the presence of HEPES buffered saline containing 20 mM phosphate (pH 7.5), 137 mM NaCl, 2.7 mM KCl and 0.05% Tween-20 (HBS + P). […] Sensor surface was activated with 1:1 mixture of 0.4 M EDC and 0.1 M NHS for 7 min, followed by incremental injections of the protein to reach ~ 8000 RU (flow rate 10 μL/minute) for a calculated maximum analyte binding capacity (Rmax) of 30–50 RU. […]
Compounds were dissolved in 100% dimethyl sulfoxide (DMSO) and then added to HBS + P at a final DMSO concentration of 2%. […] SPR results were analysed using the Biacore T200 Evaluation Software v.1.

human Drp1 isoform 3 [2] = target: T1, human Drp1 isoform 3; assay: Microscale thermophoresis (MST) binding; settings: human Drp1 isoform 3, 5% DMSO
Description: The recombinant human Drp1 protein (His-tagged human Drp1 isoform 3, kindly provided by Professor Michael Ryan, Monash University, Australia) was generated as described previously. Briefly, cDNA for human Drp1 (isoform 3) was cloned into pET21b vector and transformed in Rosetta (DE3) competent cells (Novagen, MA, Merck Millipore). Transformed cells were propagated in Luria–Bertani broth and protein expression was initiated by the addition of 0.5 mM isopropyl β-D-1-thiogalactopyranoside. Cells were harvested by centrifugation at 3,500 g for 20 min at 4 °C, and the pellet was re-suspended in lysis buffer containing 50 mM Tris HCl (pH 7.3), 500 mM NaCl, 50 mM imidazole, 2.5 mM β-mercaptoethanol, 0.01 mM LEUPEP, 0.1 mM AEBSF and 1 mM benzaminidium chloride. The cells were lysed using a pre-cooled EmulsiFlex-C5 homogenizer (Avestin, Ontario, Canada) on ice and clarified by centrifugation at 17,000 g for 30 min. The clarified cell lysate was loaded onto a 5 mL Nickel Chelating Sepharose Fast Flow column (GE Healthcare, Buckinghamshire, UK) and Drp1 protein was eluted with wash buffer containing 50 mM Tris–HCl (pH 7.6), 150 mM NaCl, 2.5 mM β-mercaptoethanol and 400 mM imidazole. […]
Compound binding was assessed in against the human Drp1 isoform-3 protein using MST Monolith NT.115 instrument (NanoTemper Technologies, Mȕnchen, Germany). […]

human Drp1 isoform 3 [3] = target: T1, human Drp1 isoform 3; assay: Drp1 GTPase activity, colorimetric malachite green assay; type: biochemical
Description: The GTPase activity of Drp1, which is required for the latter to mediate mitochondrial fission, was examined using the colorimetric GTPase assay kit (Innova Biosciences, Cambridge, UK) according to the manufacturer’s instructions. Compounds were diluted in DMSO (all with a final concentration of 0.1% DMSO). Recombinant human Drp1 protein isoform-3 (final concentration 0.25 ng/µL) was diluted in assay buffer containing 50 mM Tris HCl (pH 7.5) and 2.5 mM MgCl2, followed by incubation with compounds for 15 min at 37 °C in a 96 well plate. 0.5 mM GTP, diluted in assay buffer, was then added into the mixture followed by incubation at 37 °C for 30 min.
Upon binding to Drp1, GTP is hydrolysed into GDP and free phosphate (Pi)[24]. Therefore, the degree of GTPase inhibition was assessed by measuring the concentration of Pi released into the assay buffer, which is detected by a malachite green-based dye. The intensity of Pi-dye complex was assessed by measuring the light absorbance at 635 nm wavelength using a microplate reader (BenchMark Plus, MS, USA). Absorbance of each experimental group was normalised to the vehicle control (DMSO).

[4] = Dynamic light scattering (DLS) compound aggregation threshold; type: physicochemical
Description: Identification of compound aggregation threshold was performed using DLS Zetasizer Nano ZS (Malvern Pananalytical, Worcestershire, UK). 100 µL of samples were measured in low-volume plastic micro cuvettes (BrandTech Scientific, CT, USA) at 25 °C using default size measurement settings. […] Mdivi-1 and DRP1i27 were serially diluted three-fold from 500 µM until the volume distribution of particle size was similar to that of the DMSO control. To specifically determine aggregation threshold, further dilution was carried out between concentrations where aggregation was first observed.

human Drp1 = target: human Drp1; parameters: method as in PMID 28350990; settings: read-out: inhibitory constant (Ki), GTPase activity of human Drp1; cited from earlier work
[5] = tested on: human iPSC-derived cardiomyocytes; assay: Doxorubicin-induced cardiomyocyte injury, LDH release; type: cell-based; settings: doxorubicin 5 µM alone, 2 days
Description: Cardiomyocytes were derived from human induced pluripotent stem cells (iPSCs, CERA007c6 cell line) as previously described with modifications[26],[27]. Briefly, human iPSCs were seeded onto Matrigel (Corning) coated plates at a density of 1.25 × 10^5 cells/cm^2 in TeSR-E8 medium supplemented with 10 μM Y−27632 (Abcam). After 48 h (cells ~ 90% confluent) (day 0), medium was replaced with RPMI-1640 basal medium (Thermo Fisher Scientific) containing B-27 without insulin supplement (Thermo Fisher Scientific), growth factor reduced Matrigel (1:60 dilution) and 10 μM CHIR99021 (Cayman Chemical). At day 1, medium was replaced with RPMI 1640 basal medium containing B-27 without insulin supplement. […]
Enriched cardiomyocytes were replated onto Matrigel-coated 48-well plates at a cell density of 5 × 10^4 cells/cm^2 for 2 days. […] LDH levels in the conditioned media were assessed using a colorimetric CyQUANT LDH Cytotoxicity Assay Kit (Thermo Fisher Scientific) according to manufacturer’s protocol. […] Following the incubation at room temperature for 30 min in the dark, 50 μL of Stop Solution was added and absorbance was measured at 490 nm and 680 nm on a microplate spectrophotometer (Bio-Rad). All readings were then corrected for the background signal from the culture media and expressed as fold change.

T1 sequence (O00429 1-699 isoform O00429-4): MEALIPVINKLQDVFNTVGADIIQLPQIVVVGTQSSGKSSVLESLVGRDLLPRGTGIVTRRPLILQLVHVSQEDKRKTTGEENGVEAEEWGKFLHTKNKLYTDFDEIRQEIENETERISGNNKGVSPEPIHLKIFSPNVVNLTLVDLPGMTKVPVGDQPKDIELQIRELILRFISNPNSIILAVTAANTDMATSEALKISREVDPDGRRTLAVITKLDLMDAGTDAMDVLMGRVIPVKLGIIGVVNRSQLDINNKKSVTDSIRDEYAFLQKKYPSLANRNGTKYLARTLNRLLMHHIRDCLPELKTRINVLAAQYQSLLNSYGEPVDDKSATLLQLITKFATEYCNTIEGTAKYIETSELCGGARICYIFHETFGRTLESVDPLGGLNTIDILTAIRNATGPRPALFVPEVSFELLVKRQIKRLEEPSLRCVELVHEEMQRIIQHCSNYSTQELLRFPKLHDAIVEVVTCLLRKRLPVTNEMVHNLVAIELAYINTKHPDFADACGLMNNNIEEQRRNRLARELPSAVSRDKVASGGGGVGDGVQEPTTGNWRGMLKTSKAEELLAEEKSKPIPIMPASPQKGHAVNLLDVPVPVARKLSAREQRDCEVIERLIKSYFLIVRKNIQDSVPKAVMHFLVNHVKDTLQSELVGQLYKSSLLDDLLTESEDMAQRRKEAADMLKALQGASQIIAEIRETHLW

| Structure (SMILES) | SPR binding response (human Drp1 isoform 3 [1]) | Kd (human Drp1 isoform 3 [2]) | inhibition of GTPase activity of human Drp1 (human Drp1 isoform 3 [3]; 5 µM) | inhibition of GTPase activity of human Drp1 (human Drp1 isoform 3 [3]; increasing concentration above 5 µM) | aggregation threshold ([4]; 2% DMSO with 0.05% Tween-20) | aggregation threshold ([4]; 5% DMSO with 0.05% Tween-20) | aggregation threshold ([4]; PBS, 2% DMSO) | aggregation threshold ([4]; PBS, 5% DMSO) | concentrations at which the compound aggregated ([4]; assay buffer containing DMSO and Tween-20) | Ki (human Drp1) | LDH release [5] |
| --- | --- | --- | --- | --- | --- | --- | --- | --- | --- | --- | --- |
| COc1cc(-n2c(=S)[nH]c3ccccc3c2=O)c(Cl)cc1Cl [Mdivi-1] | no binding response | 0.23 µM | significant inhibition | not observed | 70 µM | 18.5 µM | 20 µM | 35 µM | above 18.5 µM | > 1200 µM |  |
| COc1cccc2c1C(=O)c1c(O)c3c(c(O)c1C2=O)C[C@@](O)(C(=O)CO)C[C@@H]3O[C@H]1C[C@H](N)[C@H](O)[C@H](C)O1 [doxorubicin, reference compound] |  |  |  |  |  |  |  |  |  |  | 3.41 ± 0.11 fold change |
